Results reported in ChEMBL document CHEMBL3407464, “Novel 5-HT6 receptor antagonists/D2 receptor partial agonists targeting behavioral and psychological symptoms of dementia” (Eur J Med Chem, 2015).

Columns and labels:
[1] = target: T1, 5-hydroxytryptamine receptor 6 (Homo sapiens, UniProt P50406); assay: biochemical
D(2) dopamine receptor [2] = target: T2, D(2) dopamine receptor (Homo sapiens, UniProt P14416); assay: biochemical
hERG (KCNH2) = hERG (KCNH2) (Homo sapiens, UniProt Q12809); assay: Inhibition of human ERG expressed in CHO cells assessed as reduction in channel current at holding potential of 0 mV at 1 uM by electrophysiological method; type: cell-based; details: CHO cells expressing human ERG
[3] = target: T3, Muscarinic acetylcholine receptor M1 (Homo sapiens) (UniProt P11229); assay: Inhibition of muscarinic M1 receptor (unknown origin) assessed as reduction in control ligand binding at 1 uM
T3 sequence (whole entry): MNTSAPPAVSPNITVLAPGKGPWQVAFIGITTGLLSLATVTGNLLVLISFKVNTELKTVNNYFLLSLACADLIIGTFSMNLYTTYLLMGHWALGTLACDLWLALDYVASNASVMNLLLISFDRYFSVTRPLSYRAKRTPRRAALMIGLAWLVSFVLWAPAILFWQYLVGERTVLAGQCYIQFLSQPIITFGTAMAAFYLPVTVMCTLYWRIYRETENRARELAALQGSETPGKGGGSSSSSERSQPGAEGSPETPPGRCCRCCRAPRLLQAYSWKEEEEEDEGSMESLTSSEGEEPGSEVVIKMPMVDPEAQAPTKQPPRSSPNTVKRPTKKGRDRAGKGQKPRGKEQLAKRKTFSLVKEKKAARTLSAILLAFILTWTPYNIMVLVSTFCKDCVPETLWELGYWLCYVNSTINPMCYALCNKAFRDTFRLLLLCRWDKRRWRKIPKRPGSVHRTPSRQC

D(2) dopamine receptor [4] = target: T2, D(2) dopamine receptor; assay: Agonist activity at human dopamine D2 receptor expressed in CHOK1 cells assessed as calcium mobilization at 1 uM by radiometric and luminescence plate counting method; type: functional, cell-based; details: CHO-K1
[5] = target: T1, 5-hydroxytryptamine receptor 6; assay: Agonist activity at human 5-HT6 receptor expressed in CHOK1 cells assessed as calcium mobilization at 1 uM by radiometric and luminescence plate counting method; type: functional, cell-based; details: CHO-K1
D(2) dopamine receptor [6] = target: T2, D(2) dopamine receptor; assay: Antagonist activity at human dopamine D2 receptor expressed in CHOK1 cells assessed as inhibition of apomorphine-induced calcium mobilization at 1 uM by radiometric and luminescence plate counting method; type: functional, cell-based; details: CHO-K1
Rattus norvegicus [7] = assay: Anti-depressant-like activity in intraperitoneally dosed 3-months old Wistar rat by Porsolt's forced swim test; type: functional; details: ip, read-out: MED
Rattus norvegicus [8] = assay: Anxiolytic activity in intraperitoneally dosed 3-months old Wistar rat by Vogel's conflict drinking test; type: functional; details: ip, read-out: MED

T2 sequence (P14416 whole entry): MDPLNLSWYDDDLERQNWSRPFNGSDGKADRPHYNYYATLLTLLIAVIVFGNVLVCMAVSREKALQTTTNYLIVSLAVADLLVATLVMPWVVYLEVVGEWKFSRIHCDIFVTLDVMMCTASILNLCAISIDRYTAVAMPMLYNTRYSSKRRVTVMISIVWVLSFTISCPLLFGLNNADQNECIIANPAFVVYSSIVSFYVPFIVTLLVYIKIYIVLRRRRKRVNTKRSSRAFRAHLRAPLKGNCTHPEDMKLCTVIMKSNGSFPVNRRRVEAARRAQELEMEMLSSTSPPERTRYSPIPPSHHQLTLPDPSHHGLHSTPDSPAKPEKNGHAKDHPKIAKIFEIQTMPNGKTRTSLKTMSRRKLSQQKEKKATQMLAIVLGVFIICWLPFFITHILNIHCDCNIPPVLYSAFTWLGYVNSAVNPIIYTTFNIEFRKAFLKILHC
Chain of hERG (KCNH2) (Q12809 whole entry): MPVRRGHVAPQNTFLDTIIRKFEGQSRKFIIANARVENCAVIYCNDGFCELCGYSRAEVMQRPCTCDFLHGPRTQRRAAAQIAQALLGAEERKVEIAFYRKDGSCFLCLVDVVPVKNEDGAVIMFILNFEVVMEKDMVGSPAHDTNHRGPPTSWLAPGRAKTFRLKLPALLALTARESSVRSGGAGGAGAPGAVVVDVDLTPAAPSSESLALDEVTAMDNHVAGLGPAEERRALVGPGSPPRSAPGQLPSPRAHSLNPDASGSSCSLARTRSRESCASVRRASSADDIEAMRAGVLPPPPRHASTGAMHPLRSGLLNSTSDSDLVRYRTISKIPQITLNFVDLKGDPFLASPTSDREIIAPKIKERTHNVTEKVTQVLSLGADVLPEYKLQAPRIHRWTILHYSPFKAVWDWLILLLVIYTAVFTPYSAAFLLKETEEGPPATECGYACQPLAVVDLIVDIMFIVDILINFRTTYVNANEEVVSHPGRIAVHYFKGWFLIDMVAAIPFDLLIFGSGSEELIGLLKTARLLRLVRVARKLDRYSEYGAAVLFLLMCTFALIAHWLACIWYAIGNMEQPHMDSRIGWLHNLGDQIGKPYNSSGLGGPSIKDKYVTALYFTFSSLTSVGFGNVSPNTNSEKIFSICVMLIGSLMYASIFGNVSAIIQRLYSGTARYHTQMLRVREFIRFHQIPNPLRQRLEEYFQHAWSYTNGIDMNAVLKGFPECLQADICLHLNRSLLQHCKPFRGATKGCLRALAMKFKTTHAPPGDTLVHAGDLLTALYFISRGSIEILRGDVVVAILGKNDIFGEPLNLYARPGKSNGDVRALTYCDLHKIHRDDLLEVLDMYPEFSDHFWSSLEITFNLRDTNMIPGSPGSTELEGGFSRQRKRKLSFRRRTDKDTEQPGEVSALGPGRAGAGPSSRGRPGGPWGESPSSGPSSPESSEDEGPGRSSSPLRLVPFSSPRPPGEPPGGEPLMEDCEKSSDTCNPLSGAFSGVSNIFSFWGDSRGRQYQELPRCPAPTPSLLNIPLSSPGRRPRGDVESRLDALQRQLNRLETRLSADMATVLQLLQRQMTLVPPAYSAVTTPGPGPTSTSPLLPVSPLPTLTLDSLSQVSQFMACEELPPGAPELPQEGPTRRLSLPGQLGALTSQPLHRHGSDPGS
T1 sequence (P50406 whole entry): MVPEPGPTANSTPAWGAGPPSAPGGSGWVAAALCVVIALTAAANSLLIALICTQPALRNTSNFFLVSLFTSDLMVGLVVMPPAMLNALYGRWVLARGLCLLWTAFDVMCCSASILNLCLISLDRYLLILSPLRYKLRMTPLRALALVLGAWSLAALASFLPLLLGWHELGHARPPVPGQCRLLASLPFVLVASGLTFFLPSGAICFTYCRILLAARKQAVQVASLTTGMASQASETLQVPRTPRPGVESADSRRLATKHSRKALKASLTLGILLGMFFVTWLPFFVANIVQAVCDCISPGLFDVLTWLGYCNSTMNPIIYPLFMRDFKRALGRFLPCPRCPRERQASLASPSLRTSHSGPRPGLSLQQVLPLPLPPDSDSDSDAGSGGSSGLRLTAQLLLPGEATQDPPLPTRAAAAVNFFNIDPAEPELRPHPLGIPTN

| Ki [1] [nM] | Ki (D(2) dopamine receptor [2]) [nM] | SMILES | further results |
| --- | --- | --- | --- |
| 150 | 70 | O=C1CCc2ccc(OCCCCNCCc3cn(Cc4ccccc4)c4ccccc34)cc2N1 | – |
| 24 | 95 | NC(=O)c1ccccc1OCCCN1CCN(c2cccc3c2ccn3Cc2ccccc2)CC1 | – |
| 590 | 31 | NC(=O)c1ccccc1OCCCN1CC=C(c2cn(Cc3ccccc3)c3ccccc23)CC1 | – |
| 9.9 | 45 | NC(=O)c1ccccc1OCCCN1CCN(c2cccc3c2ccn3Cc2cccc(F)c2)CC1 | – |
| 0.4 | – | O=C1CCc2ccc(OCCCCN3CCN(c4cccc5c4ccn5S(=O)(=O)c4ccccc4)CC3)cc2N1 | inhibition at 1 µM (hERG (KCNH2)): 13%; inhibition [3]: 37%; inhibition (D(2) dopamine receptor [4]): 48%; inhibition [5]: 0%; inhibition (D(2) dopamine receptor [6]): 100% |
| 100 | 12 | O=C1CCc2ccc(OCCCCN3CCN(c4cccc5c4ccn5Cc4ccc(F)cc4)CC3)cc2N1 | – |
| 33 | 160 | NC(=O)c1ccccc1OCCCN1CC=C(c2cn(S(=O)(=O)c3ccccc3)c3ccccc23)CC1 | – |
| 140 | 14 | O=C1CCc2ccc(OCCCCN3CCC(c4cn(S(=O)(=O)c5ccccc5)c5ccccc45)CC3)cc2N1 | – |
| 150 | 4.8 | O=C1CCc2ccc(OCCCCN3CCC(c4cn(Cc5ccccc5)c5ccccc45)CC3)cc2N1 | – |
| 83 | 44 | NC(=O)c1ccccc1OCCCN1CCN(c2cccc3c2ccn3Cc2ccc(F)cc2)CC1 | – |
| 13 | 20 | O=C1CCc2ccc(OCCCCN3CCN(c4cccc5c4ccn5Cc4ccccc4)CC3)cc2N1 | inhibition at 1 µM (hERG (KCNH2)): 14%; inhibition [3]: 99%; inhibition (D(2) dopamine receptor [4]): 42%; inhibition [5]: 0%; inhibition (D(2) dopamine receptor [6]): 97% |
| 3.8 | 220 | O=S(=O)(c1ccccc1)n1ccc2c(N3CCN(CCCOc4ccc5ccoc5c4)CC3)cccc21 | – |
| 45 | 11 | O=C1CCc2ccc(OCCCCN3CCN(c4cccc5c4ccn5Cc4ccccc4F)CC3)cc2N1 | – |
| 6.9 | 47 | O=S(=O)(c1ccccc1)n1ccc2c(N3CCN(CCCCOc4ccc(F)cc4)CC3)cccc21 | – |
| 1.7 | 110 | CC(C)Oc1ccccc1OCCCN1CCN(c2cccc3c2ccn3S(=O)(=O)c2ccccc2)CC1 | – |
| 62 | 180 | NC(=O)c1ccccc1OCCCNCCc1cn(S(=O)(=O)c2ccccc2)c2ccccc12 | – |
| 680 | 270 | NC(=O)c1ccccc1OCCCNCCc1cn(Cc2ccccc2)c2ccccc12 | – |
| 22 | 73 | O=C1CCc2ccc(OCCCCN3CC=C(c4cn(Cc5ccccc5)c5ccccc45)CC3)cc2N1 | – |
| 57 | 62 | NC(=O)c1ccccc1OCCCN1CCC(c2cn(S(=O)(=O)c3ccccc3)c3ccccc23)CC1 | – |

The next lines start with the compound.

| SMILES | Ki [1] [nM] | Ki (D(2) dopamine receptor [2]) [nM] | further results |
| --- | --- | --- | --- |
| O=C1CCc2ccc(OCCCN3CCN(c4cccc5c4ccn5S(=O)(=O)c4ccccc4)CC3)cc2N1 | 2.3 | 23 | – |
| O=S(=O)(c1ccccc1)n1ccc2c(N3CCN(CCCCOc4ccccc4)CC3)cccc21 | 16 | 62 | – |
| NC(=O)c1ccccc1OCCCCN1CCN(c2cccc3c2ccn3S(=O)(=O)c2ccccc2)CC1 | 2.8 | 78 | – |
| COc1ccc(NS(=O)(=O)c2sc3ccc(Cl)cc3c2C)cc1N1CCNCC1 | – | – | minimal effective dose (Rattus norvegicus [7]): 10 mg/kg; minimal effective dose (Rattus norvegicus [8]): 3 mg/kg |
| NC(=O)c1ccccc1OCCCN1CCN(c2cccc3c2ccn3Cc2ccccc2F)CC1 | 23 | – | – |
| NC(=O)c1ccccc1OCCCN1CCN(c2cccc3c2ccn3Cc2cccc(Cl)c2)CC1 | 12.6 | 76 | – |
| O=C1CCc2ccc(OCCCCN3CCN(c4cccc5c4ccn5Cc4cccc(Cl)c4)CC3)cc2N1 | – | – | inhibition at 1 µM (hERG (KCNH2)): 9%; inhibition [3]: 78%; inhibition (D(2) dopamine receptor [4]): 37%; inhibition [5]: 0%; inhibition (D(2) dopamine receptor [6]): 99% |
| CC(C)Oc1ccccc1OCCCCN1CCN(c2cccc3c2ccn3S(=O)(=O)c2ccccc2)CC1 | 11 | 120 | – |
| O=C1CCc2ccc(OCCCCN3CC=C(c4cn(S(=O)(=O)c5ccccc5)c5ccccc45)CC3)cc2N1 | 52 | 40 | – |
| O=C1CCc2ccc(OCCCCNCCc3cn(S(=O)(=O)c4ccccc4)c4ccccc34)cc2N1 | 52 | 120 | – |
| NC(=O)c1ccccc1OCCCN1CCC(c2cn(Cc3ccccc3)c3ccccc23)CC1 | 490 | 29 | – |
| O=S(=O)(c1ccccc1)n1ccc2c(N3CCN(CCCOc4ccccc4)CC3)cccc21 | 7.6 | 290 | – |
| O=S(=O)(c1ccccc1)n1ccc2c(N3CCN(CCCOc4ccc(F)cc4)CC3)cccc21 | 5.4 | 67 | – |
| O=C1CCc2ccc(OCCCCN3CCN(c4cccc5c4ccn5Cc4cccc(F)c4)CC3)cc2N1 | 20 | 6.1 | inhibition at 1 µM (hERG (KCNH2)): 18%; inhibition [3]: 94%; inhibition (D(2) dopamine receptor [4]): 39%; inhibition [5]: 0%; inhibition (D(2) dopamine receptor [6]): 99% |
